Test results: article PMC9243654 (Frontiers in Nutrition, 2022)
Where two headings read alike, the source gives them in different places.

Key:
[1] = cited from earlier work
[2] = ref PubChem database, cited from earlier work
in vitro = assay: in vitro
Protocol: The PAMPA-BBB assay was conducted according to the methodology followed by Di et al., with some modifications as described below ([15]). First, the BBB solution was prepared by dissolving 8 mg of PBL and 4 mg of cholesterol in 600 μl of n-dodecane. The initial donor solution was prepared by mixing 1 ml of extract (10 mg ml^−1 in EtOH) with 1 ml of buffer (PBS, pH = 7.4, 10 mM). The filter membrane of the donor plate was carefully coated with 5 μl of BBB solution. The acceptor plate was filled with 350 μl of buffer, and the donor plate was carefully assembled over the acceptor plate like a “sandwich.” Finally, the donor plate was filled with 350 μl of donor solution, covered, and incubated for 4 h at 37°C in the dark. After incubation time, 300 μl of the solution was taken from both plates, transferred to separate vials, and dried in the SpeedVac system at 40°C and 13 mbar pressure. Dried acceptor and donor solution were dissolved in 50 μl of pure EtOH before subjecting to UHPLC-Q-TOF-MS analysis. Permeability across in vitro BBB of the bioactive compound was measured according to Equation (1) ([25]), with some modifications in concentration rates.
(1) Pe=-ln[1-CA(t)/Ce]/A^*(1/VD+1/VA)^*t
Cequilibrium was calculated according to the following equation ([2]):
(2) Cequilibrium=[CD(t)*VD+CA(t)*VA]/(VD+VA)

[3] = compounds from Ginkgo biloba L. extract, ref Könczöl et al. ([69])
[4] = compounds of RSFE extract, octanol-water partition coefficient
[5] = PAMPA, pH 7.4, PAMPA-BBB log Pe (cm s−1)
[6] = compounds identified in LPLE extract
[7] = compound within LPLE (Nothofagus pumilio, lenga PLE extract), classes based on Könczöl et al.
[8] = PAMPA, pH 7.4, PAMPA-BBB log Pe (cm s−1), compound within KD extract, 4 h, 37°C, PBS pH 7.4
[9] = PAMPA, pH 7.4, PAMPA-BBB log Pe, compound within LPLE (Nothofagus pumilio, lenga PLE extract), N.D = not detected in acceptor
[10] = compound within LPLE (Nothofagus pumilio, lenga PLE extract), N.D = not detected in acceptor

Compound | Cross BBB potential (in vitro; PAMPA) | Log P [2, 4] | Log P [2, 6] | Log P ([2]; compounds of ASFE extract) | Log P ([2]; compounds of KD extract) | further results
COc1ccc2c3c1O[C@H]1C[C@@H](O)C=C[C@@]31CCN(C)C2 [galantamine, reference compound] |  |  |  |  |  | logPe (cm s^−1) ([1]; therapeutic drug for comparison, ref [70]): –5.35 ± 0.02 cm s^−1
COc1cc(-c2oc3cc(O)cc(O)c3c(=O)c2O)ccc1O [Isorhamnetin] | +++ (key: -: not detected in acceptor; +: log Pe > −6.5; ++: log Pe > −5.5; +++: log Pe > −4.5) | 1.9 |  |  |  | PAMPA-BBB logPe [1, 3]: −5.46; Papp (in vitro; [5]): 49 ×10⁻⁶ cm/s
O=c1cc(-c2ccc(O)cc2)oc2cc(O)cc(O)c12 [Apigenin] |  |  |  |  |  | PAMPA-BBB logPe [1, 3]: −5.35; Papp (in vitro; [5]): 26.3 ×10⁻⁶ cm/s; Cross BBB potential (in vitro; compound within RSFE extract): ++ (log Pe > −5.5)
O=C(O)c1cc(O)c(O)c(Oc2c(O)c(=O)c3oc(O)c4cc(O)c(=O)c5oc(O)c2c3c45)c1 [Sanguisorbic acid dilactone] |  |  | −0.4 | −0.4 |  | Cross BBB potential (in vitro; [7]): -
Oc1ccc(/C=C/c2cc(O)cc3c2[C@@H](c2cc(O)cc(O)c2)[C@H](c2ccc(O)cc2)O3)cc1 [ε-Viniferin] |  |  | 5.4 | 5.4 |  | Cross BBB potential (in vitro; compound within ASFE extract): -; Cross BBB potential (in vitro; [7]): -
COc1cc(/C=C/C=O)cc(OC)c1O [Sinapaldehyde] |  |  | 1.4 | 1.4 |  | Cross BBB potential (in vitro; compound within ASFE extract): -
C[C@@]12O[C@H]3C[C@@H](O1)[C@]1(C=O)[C@H]4[C@H](O)C[C@]5(C)[C@@H](c6ccc(=O)oc6)CC[C@]5(O)[C@@H]4CC[C@@]1(C3)O2 [Bryophyllin A] |  |  |  |  | 0.6 | Cross BBB potential (in vitro; compound within KD extract): -
O=C(O)CCCCCCCCCCCCCCC(=O)O [Hexadecanedioic acid] |  |  | 5.4 | 5.4 |  | Cross BBB potential (in vitro; compound within ASFE extract): -; Cross BBB potential (in vitro; [7]): -
O=c1c(-c2ccc(O)cc2)coc2c([C@@H]3O[C@H](CO)[C@@H](O)[C@H](O)[C@H]3O)c(O)c([C@@H]3O[C@H](CO)[C@@H](O)[C@H](O)[C@H]3O)c(O)c12 [Paniculatin] |  |  |  |  | −2.3 | Cross BBB potential (in vitro; compound within KD extract): -
CC(=O)O[C@H]1C[C@@H](O)[C@]2(C=O)[C@H]3CC[C@]4(C)[C@@H](c5ccc(=O)oc5)CC[C@]4(O)[C@@H]3CC[C@]2(O)C1 [Bersaldegenin-3-acetate] |  |  |  |  | 1.3 | Cross BBB potential (in vitro; compound within KD extract): -
COc1c(O)cc2oc(-c3ccc(O)c(O)c3)cc(=O)c2c1O [Eupafolin] |  |  |  |  | 1.4 | Papp at 4 h (in vitro; [8]): 339 ×10⁻⁶ cm/s; Cross BBB potential (in vitro; compound within KD extract): +++ (log Pe > −4.5)
C[C@]12CC[C@H]3[C@@H](CC[C@]4(O)C[C@@H](O)C[C@@H](O)[C@]34C=O)[C@@]1(O)CC[C@@H]2c1ccc(=O)oc1 [Bersaldegenin] |  |  |  |  | 0.2 | Cross BBB potential (in vitro; compound within KD extract): -
COc1cc(C(=O)O)cc(OC)c1O [Syringic acid] |  | 1.0 | 1.0 | 1.0 | 1.0 | Papp at 4 h (in vitro; [9]): 0.145 ×10⁻⁶ cm/s; Cross BBB potential (in vitro; compound within RSFE extract): -
COc1cc(/C=C/C(=O)OC(C(=O)O)C(O)C(=O)O)ccc1O (centres unmarked) [Fertaric acid] |  |  | 0.4 | 0.4 |  | Cross BBB potential (in vitro; compound within ASFE extract): -; Cross BBB potential (in vitro; [7]): -
O=c1c(O)c(-c2ccc(O)c(O)c2)oc2cc(O)cc(O)c12 [Quercetin, reference compound] |  |  | 1.5 | 1.5 | 1.5 | Papp at 4 h (in vitro; PAMPA, pH 7.4, LogPe, permeability of BBB to quercetin, present study): 0.0955 ×10⁻⁶ cm/s; Papp at 4 h (in vitro; [9]): 0.0245 ×10⁻⁶ cm/s
CC(C)c1cc2c(c(O)c1O)[C@@]13CCCC(C)(C)[C@@H]1C[C@@H]2OC3=O [Carnosol] |  | 4.4 |  |  |  | Papp at 4 h (in vitro; PAMPA, pH 7.4, PAMPA-BBB log Pe (cm s−1), compound within RSFE extract, 4 h, 37°C, PBS pH 7.4): 50.1 ×10⁻⁶ cm/s; Cross BBB potential (in vitro; compound within RSFE extract): +++ (log Pe > −4.5)
O=c1c(O)c(-c2ccc(O)cc2)oc2cc(O)cc(O)c12 [Kaempferol] |  |  | 1.9 | 1.9 | 1.9 | PAMPA-BBB logPe ([1]; PAMPA): −5.13; Papp at 4 h (in vitro; PAMPA, pH 7.4, PAMPA-BBB log Pe (cm s−1), compound within ASFE extract, 4 h, 37°C, PBS pH 7.4): 2.29 ×10⁻⁶ cm/s; Papp at 4 h (in vitro; [8]): 14.8 ×10⁻⁶ cm/s; Papp at 4 h (in vitro; [9]): 21.4 ×10⁻⁶ cm/s
CC12O[C@H]3C[C@@H](O1)[C@]1(C=O)[C@H]4[C@H](O)C(=O)[C@]5(C)[C@@H](c6ccc(=O)oc6)CC[C@]5(O)[C@@H]4CC[C@@]1(C3)O2 [Daigremontianin] |  |  |  |  | −0.3 | detection in the acceptor plate of PAMPA-BBB (in vitro; PAMPA): could not be found in the acceptor plate; Cross BBB potential (in vitro; compound within KD extract): ++ (log Pe > −5.5); PAMPA-BBB log Pe (cm s−1) (in vitro; compound within KD extract, 4 h, 37°C, PBS pH 7.4): −4.53 cm s−1

Continued, in another order:

Cross BBB potential (in vitro; PAMPA) | Compound | Log P [2, 4] | Log P [2, 6] | Log P ([2]; compounds of ASFE extract) | Log P ([2]; compounds of KD extract) | further results
+++ | Methydihydrojasmonic acid | 1.6 |  |  |  | PAMPA-BBB log Pe (cm s−1) (in vitro; PAMPA, 4 h, pH 7.4): −3.96 cm s−1
+++ | COc1c(O[C@@H]2O[C@H](CO)[C@@H](O)[C@H](O)[C@H]2O)cc2oc(-c3ccc(O)cc3)cc(=O)c2c1O [Homoplantaginin] | 0.8 |  |  |  | PAMPA-BBB log Pe (cm s−1) (in vitro; PAMPA, 4 h, pH 7.4): −4.24 cm s−1
++ | CC(C)C1=Cc2ccc3c(c2C(=O)C1=O)CCCC3(C)C [Rosmariquinone] | 4.9 |  |  |  | PAMPA-BBB log Pe (cm s−1) (in vitro; PAMPA, 4 h, pH 7.4): −5.00 cm s−1
++ | CC(C)c1cc2c(cc1O)[C@@]1(C)CCCC(C)(C)[C@@H]1CC2=O [Sugiol] | 5.6 |  |  |  | Papp at 4 h (in vitro; [5]): 4.57 ×10⁻⁶ cm/s
++ | CCC(O)C1CC(C)C2(CC(=O)C3(C)C4=C(CCC32C)C2(C)CCC(=O)C(C)(CO)C2CC4)O1 [Triterpene*, (23S,24S)-17,23-Epoxy-24,29-dihydroxy-27-norlanost-8-ene-3,15-dione] |  | 3.6 | 3.6 |  | PAMPA-BBB log Pe (cm s−1) (in vitro; PAMPA, 4 h, pH 7.4): −4.97 cm s−1; PAMPA-BBB log Pe (in vitro; [10]): −5.05 cm s−1
+++ | O=C(O)C[C@H]1CCC(=O)[C@@H]1C/C=C\CCO [12- Hydroxyjasmonic acid] | 0.4 |  |  |  | PAMPA-BBB log Pe (cm s−1) (in vitro; PAMPA, 4 h, pH 7.4): −4.06 cm s−1
++ | Notohamosine B | 5.6 |  |  |  | PAMPA-BBB log Pe (cm s−1) (in vitro; PAMPA, 4 h, pH 7.4): −4.62 cm s−1
+ | C=C(C)[C@@H]1CC[C@]2(C(=O)O)CC[C@]3(C)[C@H](CC[C@@H]4[C@@]5(C)CC[C@H](O)C(C)(C)[C@@H]5CC[C@]43C)[C@@H]12 [Betulinic acid] | 8.2 |  |  |  | Papp at 4 h (in vitro; [5]): 0.229 ×10⁻⁶ cm/s
++ | CC1(C)C[C@@H]2C3=CC[C@@H]4[C@@]5(C)CC[C@H](O)[C@@](C)(C=O)C5CC[C@@]4(C)[C@]3(C)CC[C@@]2(C(=O)O)C[C@@H]1O (some centres unmarked) [Lucyin A] |  | 5.3 | 5.3 |  | PAMPA-BBB log Pe (in vitro; [10]): −4.74 cm s−1
